Key:
Assay in all cases: relative viability (nuclei count vs DMSO), 5 days (fraction); higher = more cells survive
Obatoclax + Phenformin = compound: COC1=CC(c2cc3ccccc3[nH]2)=N/C1=C\c1[nH]c(C)cc1C [Obatoclax] + N=C(N)NC(=N)NCCc1ccccc1 [Phenformin] (partner 250 µM)
How it was run: (§1)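 One day after seeding in 1536-well plates, lung cancer cell lines were dosed by pin tool. Dosing was either single-drug or a fixed anchor-drug dose plus five library-drug doses (not always all listed) in √10 steps. After 5 days, nuclei were stained in one fix-and-stain step and counted on 4× images, and relative viability is the nuclei count of treated wells over that of vehicle wells, given as the median of duplicate plates.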

Bortezomib + Luminespib = compound: CC(C)C[C@H](NC(=O)[C@H](Cc1ccccc1)NC(=O)c1cnccn1)B(O)O [Bortezomib] + CCNC(=O)c1noc(-c2cc(C(C)C)c(O)cc2O)c1-c1ccc(CN2CCOCC2)cc1 [Luminespib] (partner 0.01 µM)
How it was run: as §1

Bortezomib + Olaparib = compound: CC(C)C[C@H](NC(=O)[C@H](Cc1ccccc1)NC(=O)c1cnccn1)B(O)O [Bortezomib] + O=C(c1cc(Cc2n[nH]c(=O)c3ccccc23)ccc1F)N1CCN(C(=O)C2CC2)CC1 [Olaparib] (partner 8 µM)
How it was run: as §1

[1] = compound: CC1=CC(=NN1)NC2=CC(=NC(=N2)/C=C/C3=CC=CC=C3)N4CCN(CC4)C + Cc1nc(NC(=O)N2CCC[C@H]2C(N)=O)sc1-c1ccnc(C(C)(C)C(F)(F)F)c1 [Alpelisib] (partner 2 µM)
How it was run: as §1

NCI-H650
relative viability (Obatoclax + Phenformin; first compound 0.01 µM): 0.454 | relative viability (Obatoclax + Phenformin; first compound 0.03162 µM): 0.395 | relative viability (Obatoclax + Phenformin; first compound 0.3162 µM): 0.314 | relative viability (Obatoclax + Phenformin; first compound 1 µM): 0.288 | relative viability (Bortezomib + Luminespib; first compound 0.000632 µM): 0.731 | relative viability (Bortezomib + Luminespib; first compound 0.002 µM): 0.676 | relative viability (Bortezomib + Luminespib; first compound 0.006325 µM): 0.469 | relative viability (Bortezomib + Luminespib; first compound 0.02 µM): 0.155 | relative viability (Bortezomib + Olaparib; first compound 0.0002 µM): 0.372 | relative viability (Bortezomib + Olaparib; first compound 0.000632 µM): 0.435 | relative viability (Bortezomib + Olaparib; first compound 0.002 µM): 0.398 | relative viability (Bortezomib + Olaparib; first compound 0.006325 µM): 0.165 | relative viability (Bortezomib + Olaparib; first compound 0.02 µM): 0.102 | relative viability ([1]; first compound 0.08 µM): 1.12 | relative viability ([1]; first compound 0.253 µM): 1.19 | relative viability ([1]; first compound 0.8 µM): 1.03 | relative viability ([1]; first compound 2.53 µM): 0.811 | relative viability ([1]; first compound 8 µM): 0.171
